Laboratory results taken from patent US9481637B2, “Compounds for the treatment of seizures and other central nervous systems disorders and conditions” (Ketogen Inc., priority 2014, dated 2016).

Key:
Type in all cases: in vivo
[1] = test system: MES-induced tonic seizures in CD-1 mice; test: Maximal electroshock test (MES test)
Source text: (§1) Male mice (body wt. 20-40 g) were used for all studies. Mice were used in one of the following 4 seizure tests: maximal electroshock seizure (MES) test, subcutaneous injection of pentylenetetrazol (scPTZ) test, seizures induced by 6 Hz stimulation (6 Hz), and corneal kindled seizures. These tests were selected because no single test detects all known anti-epileptic drugs (AED's), but all currently known AED's are detected as active (i.e. prevent seizures) in at least one of these tests. Subjects were tested in one of the 4 seizure tests following a defined time after treatment with either test drug or vehicle control. Following administration of test drug or vehicle by either the oral, subcutaneous or intraperitoneal route, the animals were tested according to one of the methods outlined below (1-4). Typically the pretreatment time was 60 minutes although in some cases this varied from 30 min to 4 h.
1. Maximal Electroshock Test (MES Test):
Male CD-1 mice received a maximal electroshock (45 mA, 0.2 s duration, 60 Hz) via corneal electrodes moistened with saline (shock stimulator type 221; Harvard apparatus). This stimulus intensity should elicit a full tonic seizure in >95% of control animals. Protection is defined as absence of a full tonic seizure within 15 s of stimulus delivery. To establish drug efficacy, test drug or vehicle was administered at a defined timepoint prior to the MES test, to separate experimental groups. The experiment was terminated immediately once the endpoint was met.

[2] = test system: 6 Hz-induced psychomotor seizures in CD-1 mice; test: 6 Hz psychomotor seizure test; conditions: for incidence of psychomotor seizures / mice protected from psychomotor seizure: 1 h pretreatment; for incidence of psychomotor seizures: vs Vehicle
Source text: Male, experimentally naive CD-1 mice were used in these experiments. At a defined time following drug or vehicle pretreatment, all mice received an electrical stimulus (6 Hz, 0.2 ms pulse width, 3 s duration, 32 mA) via corneal electrodes moistened with saline (ECT unit 57800; Ugo Basile). Preliminary experiments established that these stimulus parameters elicited a psychomotor seizure, defined as the expression of at least one of the following behaviors: stun/immobility, forelimb clonus, straub tail, lateral head movement, in >95% of control animals. Protection was defined as complete absence of all the above behaviors within 20 s of stimulus delivery. The effective dose of compound necessary to protect against psychomotor seizures to 50% of controls (i.e. ED50) was determined by curve fitting program.
as §1
3. 6 Hz Psychomotor Seizure Test:
Male CD-1 mice received an electrical stimulus (6 Hz, 0.2 ms pulse width, 3 s duration, 32 mA) via corneal electrodes moistened with saline (ECT unit 57800; Ugo Basile). These stimulus parameters should elicit a psychomotor seizure, defined as the expression of at least one of the following behaviours: stun/immobility, forelimb clonus, straub tail, vibrissae tremor, lateral head movement, in >95% of control animals within 30 s of stimulus delivery. To establish drug efficacy, test drug or vehicle was administered at a defined timepoint prior to the 6 Hz test, to separate experimental groups. The effect of treatment on subsequent seizure was noted. Protection is defined as complete absence of all the above behaviours within 20 s of stimulus delivery. The experiment was terminated immediately once the endpoint was met.

[3] = test system: scPTZ-induced seizures in CD-1 mice; test: s.c. pentylenetetrazol seizure test (scPTZ test)
Source text: as §1
2. s.c. Pentylenetetrazol Seizure Test (PTZ Test):
Male CD-1 mice received a single subcutaneous injection of pentylenetetrazol (PTZ: 85 mg/kg). This dose of PTZ should elicit a clonic seizure in >95% of control animals. Following PTZ injection, the animals were immediately transferred to single observation cages and observed continuously for 30 min. To establish drug efficacy, test drug or vehicle was administered at a defined timepoint prior to the PTZ administration, to separate experimental groups. The effect of treatment on subsequent seizure was noted. Protection is defined as complete absence of a clonic seizure, including a forelimb clonus, over the 30 min observation period. In the event of a seizure, the onset latency from PTZ injection was recorded. The experiment was terminated immediately once the endpoint was met, or in the case of protection, at the completion of the 30 min test period.

[4] = test system: corneal kindled seizures in CD-1 mice; test: Mouse corneal kindling; conditions: 75 and 300 mg/kg; IP and oral routes
Source text: as §1
4. Mouse Corneal Kindling:
Male CD-1 mice (body wt. 20-40 g) were used for these studies. There are 3 phases to the procedure: (1) kindling development phase, (2) kindling stability/persistence phase, and (3) drug testing phase.
1. […]
Drug testing was conducted using a repeated measures design with mice receiving up to 4 doses of a test drug and control treatments in a counterbalanced sequence. […] For each stimulation, the kindling score was assessed according to the Racine (1972) rating scale. […]

[5] = 150, 300 and 600 mg/kg IP and 600 mg/kg oral
[6] = 37.5-600 mg/kg IP and oral routes
[7] = 75-600 mg/kg IP and oral routes

SMILES	MES EC50 (mg/kg) ([1]; Dose route IP)	MES EC50 (mmol/kg) ([1]; Dose route IP)	MES EC50 (mg/kg) ([1]; Dose route PO)	MES EC50 (mmol/kg) ([1]; Dose route PO)	mice protected from psychomotor seizure ([2]; 300-600 mg/kg IP)	6 Hz EC50 (mg/kg) ([2]; Dose route IP)	6 Hz EC50 (mmol/kg) ([2]; Dose route IP)	6 Hz EC50 (mg/kg) ([2]; Dose route PO)	6 Hz EC50 (mmol/kg) ([2]; Dose route PO)	ScPTZ EC50 (mg/kg) ([3]; Dose route IP)	ScPTZ EC50 (mmol/kg) ([3]; Dose route IP)	ScPTZ EC50 (mg/kg) ([3]; Dose route PO)	ScPTZ EC50 (mmol/kg) ([3]; Dose route PO)	incidence of psychomotor seizures [2, 7]	also measured
CCCCC(CC)CCC(=O)NC(=O)[C@H](CC)N1CCCC1=O (stereo partly drawn) [compound 25, 4-ethyl-N—((S)-2-(2-oxopyrrolidin-1-yl)butanoyl)octanamide]	397	1.22	>600	>1.85	all mice	46	0.14	50	0.15	310	0.95	600	1.85		MES-induced tonic seizures vs vehicle control (FIG. 11) [1, 5]: reduced seizures; incidence of psychomotor seizures [2, 6]: dose-related decrease in the incidence of seizures; scPTZ-induced seizures (incidence, onset latency) vs vehicle control (FIGS. 12-13) [3, 5]: reduced seizures
CCCCCCCCC(=O)NCC1(CC(=O)O)CCCCC1 [compound 4, 2-(1-(nonanamidomethyl)cyclohexyl)acetic acid]															mice protected from psychomotor seizure ([2]; 600 mg/kg IP): all mice; mice protected from psychomotor seizure ([2]; 600 mg/kg oral): No mice; incidence of psychomotor seizures ([2]; 150-600 mg/kg IP): dose-related decrease in the incidence of seizures
CCCCCCCCC(=O)NC(=O)[C@H](CC)N1CCCC1=O [compound 21, (S)—N-(2-(2-oxopyrrolidin-1-yl)butanoyl)nonanamide]					all mice									dose-related decrease in the incidence of seizures	
CCCCCCCCCC(=O)NC[C@H](CC(=O)O)CC(C)C [compound 14, (S)-3-(decanamidomethyl)-5-methylhexanoic acid]					all mice									dose-related decrease in the incidence of seizures	
CCCCCCCC(=O)NC(=O)[C@H](CC)N1CCCC1=O [compound 20, (S)—N-(2-(2-oxopyrrolidin-1-yl)butanoyl)octanamide]	>600	>2.02	>600	>2.02		90	0.3	130	0.44	>600	>2.02	>600	>2.02		MES-induced tonic seizures vs vehicle control (FIG. 7) ([1]; 600 mg/kg IP): reduced seizures; 6 Hz-induced seizures vs vehicle control (FIG. 8) ([2]; 75, 150, 300 or 600 mg/kg 1 hr pre-stimulation, 300 mg/kg at 2 and 4 hr, oral or IP): reduced seizures; corneal kindled seizures (Racine kindling score) vs vehicle control (FIG. 10) [4]: reduced seizures; scPTZ-induced seizures vs vehicle control (FIG. 9) ([3]; 300 and 600 mg/kg IP): reduced seizures
CCCCC1CCC(C(=O)NC(=O)[C@H](CC)N2CCCC2=O)CC1 (stereo partly drawn) [compound 26, (S)-4-butyl-N-(2-(2-oxopyrrolidin-1-yl)butanoyl)cyclohexane-1-carboxamide]	>600	>1.78	>600	>1.78	all mice	80	0.24	88	0.26	230	0.68	300	0.89		MES-induced tonic seizures vs vehicle control (FIG. 14) ([1]; 300 and 600 mg/kg IP and 600 mg/kg oral): reduced seizures; incidence of psychomotor seizures [2, 6]: dose-related decrease in the incidence of seizures; scPTZ-induced seizures (incidence, onset latency) vs vehicle control (FIGS. 15-16) [3, 5]: reduced seizures
CCCCCCCCCC(=O)NC(=O)[C@H](CC)N1CCCC1=O [compound 22, (S)—N-(2-(2-oxopyrrolidin-1-yl)butanoyl)decanamide]														dose-related decrease in the incidence of seizures	mice protected from psychomotor seizure ([2]; 600 mg/kg IP): all mice
